Converted amounts (≈) assume the structure as drawn. Where two headings read alike, the source gives them in different places.
Tests used:
[1] = molecular target: T1, ICLPa (isocitrate lyase from P. aeruginosa) (Pseudomonas aeruginosa, UniProt Q9I0K4); assay: Inhibition of purified ICLPa enzymatic activity; type: biochemical; conditions: for IC50: purified enzyme, 170 nM ICL
T1 construct: made in house
T1 sequence (Q9I0K4 1-531): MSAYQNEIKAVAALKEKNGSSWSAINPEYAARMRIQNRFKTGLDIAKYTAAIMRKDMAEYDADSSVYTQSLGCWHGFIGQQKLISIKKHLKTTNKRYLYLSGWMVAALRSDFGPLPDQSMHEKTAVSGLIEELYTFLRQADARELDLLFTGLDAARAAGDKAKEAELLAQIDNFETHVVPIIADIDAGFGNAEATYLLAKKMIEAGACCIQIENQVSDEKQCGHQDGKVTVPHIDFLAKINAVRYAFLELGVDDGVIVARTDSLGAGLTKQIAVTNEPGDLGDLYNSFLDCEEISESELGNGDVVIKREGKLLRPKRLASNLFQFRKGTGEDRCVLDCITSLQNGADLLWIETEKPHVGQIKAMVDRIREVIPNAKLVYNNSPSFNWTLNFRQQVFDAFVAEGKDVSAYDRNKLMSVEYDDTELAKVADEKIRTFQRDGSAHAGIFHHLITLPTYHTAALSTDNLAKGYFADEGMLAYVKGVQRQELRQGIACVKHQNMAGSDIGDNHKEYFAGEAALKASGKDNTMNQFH
Protocol: (§1) The enzymatic activity of purified ICLPa and MSPa was assayed essentially as previously described. Compounds were added to the reaction mixtures (minus substrates) and incubated for 5 min at 37 °C. The enzyme concentration in the reaction mixtures was 170 nM for ICL and 25 nM for MS (based on the concentration of the monomer in each case). […] The reactions were initiated by the addition of pH-adjusted substrates, and the initial rates were recorded as A324 nm (for ICLPa) and A412 nm (for MSPa) using a Biospectrometer (Eppendorf, Stevenage, UK). Substrate turnover was calculated from the molar extinction coefficient of the assay products: Glyoxylate-phenylhydrazone (16,800/M/cm) for ICLPa and 2-nitro-5-thiobenzoic acid (14,150/M/cm) for MSPa.
(§2) All data fitting was performed with GraphPad Prism version 7.04 (GraphPad Software, Inc., La Jolla, CA, USA). The solid lines are the result of fitting the data to the equations denoted in relevant experimental sections. IC50 values were determined by a nonlinear fit using the equation for sigmoidal dose-response with variable slope. In all graphs, unless otherwise stated, the data points are the mean of experimental triplicates, and all error bars correspond to ± standard deviation.

P. aeruginosa PAO1 = assay: Antibacterial growth assay (OD600, 18 h) in LB or M9-acetate; type: cell-based; conditions: Pseudomonas aeruginosa; for inhibition at 200 µM: final optical density; for MIC: PAO1, MIC = lowest concentration inhibiting >75% of growth
Protocol: Growth assays were carried out using clear, U-bottom, sterile 96-well plates (Thermo Fisher Scientific, Bishop’s Stortford, UK). P. aeruginosa PAO1 overnight cultures were diluted to a starting OD600 of 0.05 in LB medium or M9 medium supplemented with 0.5% acetate. The test compounds were added to the indicated final concentrations, and the plates were covered with gas-permeable adhesive seals (Scientific Laboratory Supplies, Nottingham, UK). Assay controls included 1% DMSO, a positive antibiotic control (ciprofloxacin, 1 µg/mL), and medium-only wells as a control for background absorbance. […]

[2] = molecular target: T2, MSPa (malate synthase G from P. aeruginosa) (Pseudomonas aeruginosa, UniProt Q9I636); assay: Inhibition of purified MSPa enzymatic activity; type: biochemical; conditions: for inhibition at 75 µM: 75 µM compound, read-out: Enzyme Inhibition (%) at 75 µM MSPa
T2 construct: made in house
T2 sequence (Q9I636 whole entry): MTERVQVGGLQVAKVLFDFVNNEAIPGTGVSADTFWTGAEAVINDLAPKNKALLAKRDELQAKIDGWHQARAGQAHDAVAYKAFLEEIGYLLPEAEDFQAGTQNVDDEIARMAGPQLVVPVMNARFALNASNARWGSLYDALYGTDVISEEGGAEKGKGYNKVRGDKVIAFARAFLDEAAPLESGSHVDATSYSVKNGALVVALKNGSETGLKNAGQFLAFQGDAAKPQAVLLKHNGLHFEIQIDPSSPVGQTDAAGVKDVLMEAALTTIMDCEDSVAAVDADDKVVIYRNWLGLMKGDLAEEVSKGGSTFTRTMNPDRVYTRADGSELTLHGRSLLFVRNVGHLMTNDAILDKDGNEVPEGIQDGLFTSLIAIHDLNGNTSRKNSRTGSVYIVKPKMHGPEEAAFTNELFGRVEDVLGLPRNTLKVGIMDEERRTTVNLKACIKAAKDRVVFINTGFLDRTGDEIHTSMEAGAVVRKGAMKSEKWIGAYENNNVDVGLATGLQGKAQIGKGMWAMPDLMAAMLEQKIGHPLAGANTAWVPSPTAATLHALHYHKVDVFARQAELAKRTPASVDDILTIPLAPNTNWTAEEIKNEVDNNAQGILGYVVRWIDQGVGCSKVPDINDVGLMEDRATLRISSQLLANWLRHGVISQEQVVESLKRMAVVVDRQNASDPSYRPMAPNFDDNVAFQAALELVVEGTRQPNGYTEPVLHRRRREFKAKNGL
Protocol: as §1, §2

[3] = 75 µM compound, read-out: Enzyme Inhibition (%) at 75 µM ICLPa
[4] = PAO1, LB medium, read-out: PAO1 Growth Inhibition (%) at 200 µM LB
[5] = PAO1, M9-acetate medium, read-out: PAO1 Growth Inhibition (%) at 200 µM M9ac
[6] = M9 medium with 0.5% acetate, read-out: MIC M9ac

C=C(CC(=O)O)C(=O)O [ITA, itaconate, reference compound]
Enzyme Inhibition (%) at 75 µM ICLPa ([1]; 75 µM compound): 72.6% | IC50 [1]: 24.9 µM | inhibition at 75 µM ([1]; read-out: Enzyme Inhibition (%) at 75 µM ICLPa, 75 µM compound): ~70%

CC(C)(C)OC(=O)/N=C(\NC(=O)OC(C)(C)C)Nc1cc(Br)ccn1 [SB001]
inhibition at 75 µM [1, 3]: 6.1% | IC50 [1]: > 75 µM | inhibition at 200 µM (P. aeruginosa PAO1; [4]): 0% | inhibition at 200 µM (P. aeruginosa PAO1; [5]): 48% | MIC (P. aeruginosa PAO1; LB medium, read-out: MIC LB): > 200 µM | MIC (P. aeruginosa PAO1; [6]): > 200 µM | IC50 [2]: > 75 µM | inhibition at 75 µM [2]: 16.2%

CC(C)(C)OC(=O)/N=C(\NC(=O)OC(C)(C)C)Nc1cc(C(F)(F)F)ccn1 [SB022]
inhibition at 75 µM [1, 3]: 4.3% | IC50 [1]: > 75 µM | inhibition at 200 µM (P. aeruginosa PAO1; [4]): 0% | inhibition at 200 µM (P. aeruginosa PAO1; [5]): 7% | MIC (P. aeruginosa PAO1; LB medium, read-out: MIC LB): > 200 µM | MIC (P. aeruginosa PAO1; [6]): > 200 µM | IC50 [2]: > 75 µM | inhibition at 75 µM [2]: 0%

CC(C)(C)OC(=O)/N=C(\NC(=O)OC(C)(C)C)Nc1cc(F)ccn1 [SB026]
inhibition at 75 µM [1, 3]: 62% | IC50 [1]: 54.5 µM | inhibition at 200 µM (P. aeruginosa PAO1; [4]): ~23% | inhibition at 200 µM (P. aeruginosa PAO1; [5]): 72% | MIC (P. aeruginosa PAO1; LB medium, read-out: MIC LB): > 200 µM | MIC (P. aeruginosa PAO1; [6]): 70.9 µM (≈ 25.1 µg/mL) | IC50 [2]: 59.3 µM | inhibition at 75 µM [2]: 55.1%

COC(=O)c1ccnc(N/C(=N/C(=O)OC(C)(C)C)NC(=O)OC(C)(C)C)c1 [SB029]
inhibition at 75 µM [1, 3]: 55.9% | IC50 [1]: 64.7 µM | inhibition at 200 µM (P. aeruginosa PAO1; [4]): 6% | inhibition at 200 µM (P. aeruginosa PAO1; [5]): 45% | MIC (P. aeruginosa PAO1; LB medium, read-out: MIC LB): > 200 µM | MIC (P. aeruginosa PAO1; [6]): > 78.9 µM | IC50 [2]: > 75 µM | inhibition at 75 µM [2]: 0%

CC(C)(C)OC(=O)/N=C(\NC(=O)OC(C)(C)C)Nc1ccnc(Cl)c1 [SB032]
inhibition at 75 µM [1, 3]: 43.8% | IC50 [1]: 91.8 µM | IC50 [2]: 70.6 µM | inhibition at 75 µM [2]: 48.7%

Reference: publication PMC7177833, “2-Aminopyridine Analogs Inhibit Both Enzymes of the Glyoxylate Shunt in Pseudomonas aeruginosa” (International Journal of Molecular Sciences, 2020)
